Data: patent publication US20160081338A1, “PLANT GROWTH ACCELERATOR” (Nippon Soda Co., Ltd., priority 2012, published 2016)

Key:
[1] = tested on: rice seeds (variety: Koshihikari); test: Test on acceleration of rice root growth and effect of growing vigourous seedlings; type: in vivo; settings: for Seminal Root Length: paper filter, 25° C.
Protocol: A paper filter was spread in a plastic cup and impregnated with 10 ml of each of the chemical solutions prepared in Example 1 or Comparative Example 1. In non-treatment, water was used in place of the chemical solutions. In treatment plots, 1 replication was provided for each concentration; in the non-treatment plots, 2 replications were provided. Ten rice seeds (variety: Koshihikari) were sown on each plot of the paper filter and cultivated in a growth chamber at 25° C., and the length of roots was measured after 5 and 7 days. The average of measured values excluding the maximum and minimum values was calculated. The ratio (%) of the average value in each treatment plot to the average value in the non-treatment plots was calculated.

[2] = tested on: cucumber (Variety:Sagamihanjiro-fushinari); test: Test on acceleration of growth of aboveground/underground part of cucumber and effect of growing vigourous seedlings; type: in vivo; settings: after 7 days, dilution 708, active ingredient 250 ppm
Protocol: Seedling-raising culture soil for gardening was placed in a 12 -cm-by-20 -cm plastic pot 10 cm in depth, and 5 seeds of cucumber (Variety:Sagamihanjiro-fushinari) were sown in the soil. Thereinto was uniformly irrigated 500 ml of each chemical solution prepared in Example 1 or Comparative Example 1. Water was used in place of each chemical solution in the non-treatment plots. Each plot has 3 replications. The above-ground and underground parts of the seedlings germinated and grown after 7 days were measured for length. The ratio (%) of the average value in each treatment plot to the average value in the non-treatment plot was calculated.

[3] = After 5 Days, dilution 708, active ingredient 250 ppm
[4] = After 5 Days, dilution 2832, active ingredient 62.5 ppm
[5] = After 5 Days, dilution 11328, active ingredient 15.6 ppm
[6] = After 7 Days, dilution 2832, active ingredient 62.5 ppm
[7] = After 7 Days, dilution 11328, active ingredient 15.6 ppm

For `Cc1c(Br)c2ccc(F)cc2n1S(=O)(=O)c1ncn(S(=O)(=O)N(C)C)n1` [Amisulbrom, 3-(3-bromo-6-fluoro-2-methylindol-1-ylsulfonyl)-N,N-dimethyl-1H-1,2,4-triazole-1-sulfonamide], the “Seminal Root Length To Non-treatment” value [1, 3] was 120%, the “Seminal Root Length” value [1, 3] was 2.46 cm and the “Seminal Root Length To Non-treatment” value [1, 4] was 139%. For the same compound, the “Seminal Root Length” value [1, 4] was 2.85 cm, the “Seminal Root Length To Non-treatment” value [1, 5] was 129% and the “Seminal Root Length” value [1, 5] was 2.65 cm. The “Seminal Root Length” value ([1]; After 7 Days, dilution 708, active ingredient 250 ppm) was 2.91 cm, the “Seminal Root Length To Non-treatment” value [1, 6] was 176% and the “Seminal Root Length” value [1, 6] was 4.04 cm. For the same compound, the “Seminal Root Length To Non-treatment” value [1, 7] was 154%, the “Seminal Root Length” value [1, 7] was 3.53 cm and the “Seminal Root Length To Non-treatment” value ([1]; after 7 days, dilution 708, active ingredient 250 ppm) was 127%. The “Above-ground Part Length To Non-treatment” value [2] was 108%, the “Under-ground Part Length To Non-treatment” value [2] was 117% and the “Above-ground Part Length” value ([2]; 500 ml irrigated into soil) was 2.2 cm. The “Under-ground Part Length” value ([2]; 500 ml irrigated into soil) was 4.3 cm.
